Assay results: US20210221822A1, “TRICYCLIC DERIVATIVES INHIBITOR, PREPARATION METHOD, AND APPLICATIONS THEREOF” (Jiangsu Hansoh Pharmaceutical Group Co., Ltd., priority 2018, published 2021)

What was measured:
PI3Kβ = target: T1, PI3Kβ (Homo sapiens, UniProt P42338); assay: ADP-Glo lipid kinase assay, PI3Kβ kinase activity; type: biochemical; details: 0.4 nM enzyme, 90 min, 100 μM ATP
T1 construct: purchased Carna 11-102
Procedure, shortened: (§1)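 ADP-Glo luminescence measured ADP formed by PI3Kα, β, γ or δ (0.1-2 nM working solution) with PIP2:3PS (50 μM added solution) and ATP in HEPES/MgCl2/NaCl/BSA buffer, 90 to 120 min at room temperature. % inhibition was set against DMSO and no-kinase controls, and IC50 came from a four-parameter fit.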

PI3Kγ = target: T2, PI3Kγ (Homo sapiens, UniProt P48736); assay: ADP-Glo lipid kinase assay, PI3Kγ kinase activity; type: biochemical; details: 0.4 nM enzyme, 120 min, 50 μM ATP
T2 construct: purchased Thermofisher PV4786
T2 sequence (P48736 whole entry): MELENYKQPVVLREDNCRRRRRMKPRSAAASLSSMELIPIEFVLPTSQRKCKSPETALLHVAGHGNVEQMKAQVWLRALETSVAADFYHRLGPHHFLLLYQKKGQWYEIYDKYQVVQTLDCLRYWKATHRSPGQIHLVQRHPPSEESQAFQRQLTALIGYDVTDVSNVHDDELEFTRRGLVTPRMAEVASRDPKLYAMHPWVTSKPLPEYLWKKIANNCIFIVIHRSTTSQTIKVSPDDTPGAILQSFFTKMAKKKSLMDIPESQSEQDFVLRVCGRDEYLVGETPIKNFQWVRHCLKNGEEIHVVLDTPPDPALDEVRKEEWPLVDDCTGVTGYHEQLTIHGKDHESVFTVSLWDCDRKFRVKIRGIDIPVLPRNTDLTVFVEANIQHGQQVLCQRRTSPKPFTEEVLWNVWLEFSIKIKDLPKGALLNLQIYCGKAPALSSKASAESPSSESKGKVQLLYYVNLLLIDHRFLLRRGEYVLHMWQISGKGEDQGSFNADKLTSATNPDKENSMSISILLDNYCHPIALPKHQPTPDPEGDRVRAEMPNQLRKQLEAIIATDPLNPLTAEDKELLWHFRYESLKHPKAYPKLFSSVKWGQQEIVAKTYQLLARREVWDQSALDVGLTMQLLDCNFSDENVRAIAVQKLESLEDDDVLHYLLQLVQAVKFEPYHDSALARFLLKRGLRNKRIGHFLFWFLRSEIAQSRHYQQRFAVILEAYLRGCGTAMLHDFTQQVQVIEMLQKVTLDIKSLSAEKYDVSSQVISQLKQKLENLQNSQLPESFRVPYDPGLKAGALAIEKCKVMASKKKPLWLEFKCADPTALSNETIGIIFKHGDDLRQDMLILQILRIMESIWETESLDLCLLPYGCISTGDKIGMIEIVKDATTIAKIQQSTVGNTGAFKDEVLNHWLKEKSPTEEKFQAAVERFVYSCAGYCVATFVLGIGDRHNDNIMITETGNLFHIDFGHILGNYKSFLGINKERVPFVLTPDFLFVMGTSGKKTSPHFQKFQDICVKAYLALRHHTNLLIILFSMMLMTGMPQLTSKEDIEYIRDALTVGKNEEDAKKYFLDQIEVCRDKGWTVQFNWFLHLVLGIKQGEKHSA
Procedure, shortened: as §1

HCC1954 cells = assay: In vivo efficacy test, HCC1954 tumor-bearing nude mice; parameters: species or system BALB/c nude mice; details: HCC1954 xenograft, oral 10 mg/kg once/day, 21 days (Example 51: 19 days)
Protocol: a. HCC1954 cells were taken from the cell bank, and resuscitated in RPMI-1640 medium (RPMI-1640+10% FBS+1% SP). The resuscitated cells were placed in a cell culture flask (the cell type, date, operator's name and the like were marked on the wall of the flask), and cultured in a CO2 incubator (the temperature of the incubator was 37° C., and the CO2 concentration was 5%).
c. The cultured cells were collected and counted with the automatic cell counter. The cells were resuspended with PBS and matrigel according to the counting results to prepare a cell suspension (density: 5×10^7/mL), which was placed in an ice box for later use.
d. The test nude mice were subjected to inoculation successively (0.1 mL of cell suspension was inoculated to each mouse).
a. According to the tumor growth, the tumor was measured on 14 to 18 days after the inoculation, and the tumor size was calculated.
Tumor volume calculation: tumor volume (mm^3)=length (mm)×width (mm)×width (mm)/2
c. According to the grouping results, the test compounds were administered (administration mode: oral administration; administration dose: 10 mg/kg;
administration volume: 10 mL/kg; administration frequency: once/day; administration cycle: 21 days; vehicle: 0.5% CMC/1% Tween 80).
d. Tumor volume and body weight were measured twice a week after the administration of test compounds began.
f. […]

T1 sequence (P42338 whole entry): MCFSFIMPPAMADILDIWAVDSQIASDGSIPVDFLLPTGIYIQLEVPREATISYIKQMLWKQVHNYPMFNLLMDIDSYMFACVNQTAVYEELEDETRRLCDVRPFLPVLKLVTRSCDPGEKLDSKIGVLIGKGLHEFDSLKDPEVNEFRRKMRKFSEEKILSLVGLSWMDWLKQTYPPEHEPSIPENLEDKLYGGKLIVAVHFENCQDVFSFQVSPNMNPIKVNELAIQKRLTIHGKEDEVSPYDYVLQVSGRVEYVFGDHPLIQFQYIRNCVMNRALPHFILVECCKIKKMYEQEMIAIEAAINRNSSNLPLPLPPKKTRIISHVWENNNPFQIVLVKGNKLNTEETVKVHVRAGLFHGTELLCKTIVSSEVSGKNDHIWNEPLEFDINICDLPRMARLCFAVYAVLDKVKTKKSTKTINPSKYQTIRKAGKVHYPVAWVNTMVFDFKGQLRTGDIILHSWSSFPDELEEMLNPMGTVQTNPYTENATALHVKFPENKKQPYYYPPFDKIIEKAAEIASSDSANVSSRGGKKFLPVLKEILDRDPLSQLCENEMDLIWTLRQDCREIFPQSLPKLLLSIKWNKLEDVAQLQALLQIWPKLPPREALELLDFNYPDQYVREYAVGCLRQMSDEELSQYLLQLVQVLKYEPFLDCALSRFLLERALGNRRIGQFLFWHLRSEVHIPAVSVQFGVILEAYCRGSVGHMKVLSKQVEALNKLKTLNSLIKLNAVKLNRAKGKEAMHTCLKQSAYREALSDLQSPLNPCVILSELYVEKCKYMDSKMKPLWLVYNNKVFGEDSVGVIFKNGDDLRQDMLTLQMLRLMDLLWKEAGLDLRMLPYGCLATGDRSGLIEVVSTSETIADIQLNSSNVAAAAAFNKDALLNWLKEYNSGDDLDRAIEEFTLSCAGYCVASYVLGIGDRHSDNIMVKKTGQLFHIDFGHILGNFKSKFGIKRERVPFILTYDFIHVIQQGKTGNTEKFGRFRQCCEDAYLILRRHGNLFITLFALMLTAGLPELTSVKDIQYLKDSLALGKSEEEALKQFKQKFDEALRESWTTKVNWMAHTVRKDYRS
T1 sequence (P27986 whole entry partner): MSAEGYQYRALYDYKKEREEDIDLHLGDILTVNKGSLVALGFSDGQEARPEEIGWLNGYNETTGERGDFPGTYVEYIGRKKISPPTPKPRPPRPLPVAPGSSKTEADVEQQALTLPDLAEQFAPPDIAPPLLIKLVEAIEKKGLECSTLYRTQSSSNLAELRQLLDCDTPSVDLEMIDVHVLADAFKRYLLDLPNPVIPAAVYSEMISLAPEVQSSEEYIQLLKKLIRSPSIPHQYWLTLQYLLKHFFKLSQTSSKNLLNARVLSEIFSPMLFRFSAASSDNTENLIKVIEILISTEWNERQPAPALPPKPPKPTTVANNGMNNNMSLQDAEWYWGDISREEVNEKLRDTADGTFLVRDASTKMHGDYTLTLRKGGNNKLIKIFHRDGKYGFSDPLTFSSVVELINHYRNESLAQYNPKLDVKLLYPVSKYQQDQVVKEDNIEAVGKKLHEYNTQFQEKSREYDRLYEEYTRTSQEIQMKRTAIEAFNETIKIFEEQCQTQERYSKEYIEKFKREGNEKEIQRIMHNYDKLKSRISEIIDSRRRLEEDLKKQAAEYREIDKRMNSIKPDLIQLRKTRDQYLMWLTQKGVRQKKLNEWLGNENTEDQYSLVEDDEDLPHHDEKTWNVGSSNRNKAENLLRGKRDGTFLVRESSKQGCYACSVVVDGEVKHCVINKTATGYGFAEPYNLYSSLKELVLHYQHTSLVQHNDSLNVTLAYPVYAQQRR

## C[C@H](Nc1ccc2c(c1)OCCn1cc(N3C(=O)COC[C@H]3C(F)F)nc1-2)C(N)=O [Example 68, (S)-2-((2-((S)-3-(difluoromethyl)-5-oxomorpholino)-5,6-dihydrobenzo[f]imidazo[1,2-d][1,4]oxazepin-9-yl)amino)propanamide]
PI3Kβ
  IC50: 198 nM
PI3Kγ
  IC50: 79 nM
HCC1954 cells
  Tumor growth inhibition rate: 78%
